ChEMBL document CHEMBL4507268 (2021)

Key:
[1] = target: Mitogen-activated protein kinase kinase kinase kinase 4 (Homo sapiens) (UniProt O95819); conditions: Compound concentration 1000.0 nM
[2] = target: 5-hydroxytryptamine receptor 1B (Homo sapiens) (UniProt P28222); conditions: Compound concentration 10.0 uM
[3] = target: Uncharacterized serine/threonine-protein kinase SBK3 (Homo sapiens) (UniProt P0C264); conditions: Compound concentration 1000.0 nM
[4] = target: T1, Aurora kinase A (Homo sapiens) (UniProt O14965); conditions: Compound concentration 1000.0 nM
T1 sequence (whole entry): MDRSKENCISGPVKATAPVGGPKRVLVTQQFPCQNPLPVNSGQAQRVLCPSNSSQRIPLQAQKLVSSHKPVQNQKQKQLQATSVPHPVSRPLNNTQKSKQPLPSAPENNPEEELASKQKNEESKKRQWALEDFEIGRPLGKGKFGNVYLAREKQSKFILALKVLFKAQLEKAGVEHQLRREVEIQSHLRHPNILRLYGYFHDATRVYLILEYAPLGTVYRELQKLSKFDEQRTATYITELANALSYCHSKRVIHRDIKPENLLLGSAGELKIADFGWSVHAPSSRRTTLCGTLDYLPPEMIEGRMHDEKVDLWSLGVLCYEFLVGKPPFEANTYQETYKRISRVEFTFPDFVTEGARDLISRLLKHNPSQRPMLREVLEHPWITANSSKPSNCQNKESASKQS

[5] = target: T2, Serine/threonine-protein kinase ULK2 (Homo sapiens) (UniProt Q8IYT8); conditions: Compound concentration 1000.0 nM
T2 sequence (whole entry): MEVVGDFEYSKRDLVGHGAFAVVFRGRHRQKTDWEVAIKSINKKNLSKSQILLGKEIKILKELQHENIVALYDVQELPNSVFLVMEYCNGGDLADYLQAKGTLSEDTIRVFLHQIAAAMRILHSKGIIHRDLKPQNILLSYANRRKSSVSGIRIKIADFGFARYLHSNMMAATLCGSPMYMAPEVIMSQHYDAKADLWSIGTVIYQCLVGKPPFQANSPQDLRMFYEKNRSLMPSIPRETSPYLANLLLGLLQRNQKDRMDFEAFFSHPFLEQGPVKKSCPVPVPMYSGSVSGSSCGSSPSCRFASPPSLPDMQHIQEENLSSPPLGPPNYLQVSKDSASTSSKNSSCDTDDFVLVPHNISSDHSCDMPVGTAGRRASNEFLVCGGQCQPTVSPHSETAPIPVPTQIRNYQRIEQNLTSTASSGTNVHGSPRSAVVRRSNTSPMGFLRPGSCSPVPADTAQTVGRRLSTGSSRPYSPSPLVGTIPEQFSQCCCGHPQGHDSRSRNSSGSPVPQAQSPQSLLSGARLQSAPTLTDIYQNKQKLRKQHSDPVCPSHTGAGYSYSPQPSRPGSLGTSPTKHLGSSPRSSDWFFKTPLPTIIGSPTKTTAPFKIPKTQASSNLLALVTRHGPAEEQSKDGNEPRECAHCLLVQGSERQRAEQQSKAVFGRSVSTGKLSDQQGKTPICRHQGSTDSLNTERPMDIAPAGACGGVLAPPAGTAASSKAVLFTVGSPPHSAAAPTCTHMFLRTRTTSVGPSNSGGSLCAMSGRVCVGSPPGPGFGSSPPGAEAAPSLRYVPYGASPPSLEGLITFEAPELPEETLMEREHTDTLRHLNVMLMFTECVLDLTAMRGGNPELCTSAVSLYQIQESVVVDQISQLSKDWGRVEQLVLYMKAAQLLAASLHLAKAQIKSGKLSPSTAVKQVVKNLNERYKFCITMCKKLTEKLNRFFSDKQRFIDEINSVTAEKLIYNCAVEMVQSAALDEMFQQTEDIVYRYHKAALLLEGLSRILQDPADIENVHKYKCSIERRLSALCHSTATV

[6] = target: Vascular endothelial growth factor receptor 3 (Homo sapiens) (UniProt P35916); conditions: Compound concentration 1000.0 nM
[7] = target: NT-3 growth factor receptor (Homo sapiens) (UniProt Q16288); conditions: Compound concentration 1000.0 nM
[8] = target: 5-hydroxytryptamine receptor 6 (Homo sapiens) (UniProt P50406); conditions: Compound concentration 10.0 uM
[9] = target: Serine/threonine-protein kinase 25 (Homo sapiens) (UniProt O00506); conditions: Compound concentration 1000.0 nM
[10] = target: Mu-type opioid receptor (Homo sapiens) (UniProt P35372); conditions: Compound concentration 10.0 uM
[11] = target: Serine/threonine-protein kinase/endoribonuclease IRE1 (Homo sapiens) (UniProt O75460); conditions: Compound concentration 1000.0 nM
[12] = target: Phosphatidylinositol 4-phosphate 5-kinase type-1 alpha (Homo sapiens) (UniProt Q99755); conditions: Compound concentration 1000.0 nM
[13] = target: T3, Dual specificity tyrosine-phosphorylation-regulated kinase 2 (Homo sapiens) (UniProt Q92630); conditions: Compound concentration 1000.0 nM
T3 sequence (whole entry): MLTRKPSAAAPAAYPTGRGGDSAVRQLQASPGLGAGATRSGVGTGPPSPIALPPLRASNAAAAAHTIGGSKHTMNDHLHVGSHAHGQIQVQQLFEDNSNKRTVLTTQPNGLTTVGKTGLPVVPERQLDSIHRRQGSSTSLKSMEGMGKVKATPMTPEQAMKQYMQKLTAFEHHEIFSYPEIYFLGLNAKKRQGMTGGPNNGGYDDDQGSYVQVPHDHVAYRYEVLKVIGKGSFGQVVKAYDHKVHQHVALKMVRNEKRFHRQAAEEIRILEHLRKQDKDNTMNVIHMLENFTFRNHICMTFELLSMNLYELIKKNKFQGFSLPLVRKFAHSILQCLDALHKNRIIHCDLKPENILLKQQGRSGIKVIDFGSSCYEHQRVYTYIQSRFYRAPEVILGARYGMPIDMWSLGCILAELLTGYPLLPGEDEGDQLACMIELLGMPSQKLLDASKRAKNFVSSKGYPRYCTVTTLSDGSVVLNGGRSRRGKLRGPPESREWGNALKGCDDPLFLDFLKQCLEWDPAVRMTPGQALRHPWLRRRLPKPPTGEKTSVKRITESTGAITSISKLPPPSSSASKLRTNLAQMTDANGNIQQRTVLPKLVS

[14] = system: Epidermal growth factor receptor (Homo sapiens), P00533 [L858R,T790M]; conditions: Compound concentration 1000.0 nM
[15] = target: Tyrosine-protein kinase Lck (Homo sapiens) (UniProt P06239); conditions: Compound concentration 1000.0 nM
[16] = target: Cyclin-dependent kinase 16 (Homo sapiens) (UniProt Q00536); conditions: Compound concentration 1000.0 nM

Sequence of Serine/threonine-protein kinase 25 (Homo sapiens) (O00506 whole entry, looked up): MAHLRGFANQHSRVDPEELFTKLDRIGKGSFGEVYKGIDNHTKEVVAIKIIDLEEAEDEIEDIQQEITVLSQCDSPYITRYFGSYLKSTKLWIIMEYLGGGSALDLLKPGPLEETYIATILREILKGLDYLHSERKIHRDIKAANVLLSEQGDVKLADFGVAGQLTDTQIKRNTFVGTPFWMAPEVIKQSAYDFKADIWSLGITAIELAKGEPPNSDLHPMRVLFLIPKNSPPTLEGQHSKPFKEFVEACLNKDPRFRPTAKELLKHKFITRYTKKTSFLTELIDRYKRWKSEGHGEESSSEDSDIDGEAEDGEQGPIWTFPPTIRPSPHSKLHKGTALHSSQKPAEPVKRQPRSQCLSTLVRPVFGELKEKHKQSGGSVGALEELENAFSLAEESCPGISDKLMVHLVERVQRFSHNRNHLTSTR
Sequence of Vascular endothelial growth factor receptor 3 (Homo sapiens) (P35916 whole entry): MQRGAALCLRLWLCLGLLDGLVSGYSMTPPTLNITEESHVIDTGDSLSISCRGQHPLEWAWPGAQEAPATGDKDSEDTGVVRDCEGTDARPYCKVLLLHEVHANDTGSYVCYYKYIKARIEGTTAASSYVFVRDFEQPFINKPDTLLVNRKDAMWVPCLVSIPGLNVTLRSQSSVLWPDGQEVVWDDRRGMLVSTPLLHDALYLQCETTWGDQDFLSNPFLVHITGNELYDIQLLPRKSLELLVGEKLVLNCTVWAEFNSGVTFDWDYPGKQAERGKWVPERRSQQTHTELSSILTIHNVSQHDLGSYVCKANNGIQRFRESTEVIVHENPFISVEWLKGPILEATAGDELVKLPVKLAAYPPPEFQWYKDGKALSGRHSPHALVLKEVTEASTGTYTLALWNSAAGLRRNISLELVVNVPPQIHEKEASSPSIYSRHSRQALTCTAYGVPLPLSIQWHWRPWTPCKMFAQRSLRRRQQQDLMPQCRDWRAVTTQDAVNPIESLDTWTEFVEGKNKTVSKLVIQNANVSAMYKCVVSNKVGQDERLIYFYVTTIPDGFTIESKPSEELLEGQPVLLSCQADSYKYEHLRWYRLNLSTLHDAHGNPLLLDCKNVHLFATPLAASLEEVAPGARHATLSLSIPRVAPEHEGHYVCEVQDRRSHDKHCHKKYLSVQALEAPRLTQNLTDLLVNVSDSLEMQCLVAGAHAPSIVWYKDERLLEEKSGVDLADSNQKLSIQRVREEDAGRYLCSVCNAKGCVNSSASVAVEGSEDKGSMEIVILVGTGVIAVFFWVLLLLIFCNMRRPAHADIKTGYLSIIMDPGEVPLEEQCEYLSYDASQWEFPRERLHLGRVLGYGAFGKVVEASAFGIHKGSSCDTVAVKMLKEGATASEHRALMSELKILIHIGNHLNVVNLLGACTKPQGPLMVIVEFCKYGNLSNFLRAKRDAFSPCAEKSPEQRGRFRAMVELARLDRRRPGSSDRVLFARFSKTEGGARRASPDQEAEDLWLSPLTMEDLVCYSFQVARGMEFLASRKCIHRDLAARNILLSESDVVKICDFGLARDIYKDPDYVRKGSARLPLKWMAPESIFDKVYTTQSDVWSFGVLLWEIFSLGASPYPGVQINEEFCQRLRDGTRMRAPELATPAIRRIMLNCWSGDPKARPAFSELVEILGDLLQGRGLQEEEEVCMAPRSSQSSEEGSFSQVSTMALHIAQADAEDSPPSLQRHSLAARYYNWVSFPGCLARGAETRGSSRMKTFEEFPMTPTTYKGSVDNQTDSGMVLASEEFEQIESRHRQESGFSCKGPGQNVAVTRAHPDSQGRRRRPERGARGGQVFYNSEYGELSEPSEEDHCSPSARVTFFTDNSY
Sequence of Mitogen-activated protein kinase kinase kinase kinase 4 (Homo sapiens) (O95819 2-1239 limits assumed): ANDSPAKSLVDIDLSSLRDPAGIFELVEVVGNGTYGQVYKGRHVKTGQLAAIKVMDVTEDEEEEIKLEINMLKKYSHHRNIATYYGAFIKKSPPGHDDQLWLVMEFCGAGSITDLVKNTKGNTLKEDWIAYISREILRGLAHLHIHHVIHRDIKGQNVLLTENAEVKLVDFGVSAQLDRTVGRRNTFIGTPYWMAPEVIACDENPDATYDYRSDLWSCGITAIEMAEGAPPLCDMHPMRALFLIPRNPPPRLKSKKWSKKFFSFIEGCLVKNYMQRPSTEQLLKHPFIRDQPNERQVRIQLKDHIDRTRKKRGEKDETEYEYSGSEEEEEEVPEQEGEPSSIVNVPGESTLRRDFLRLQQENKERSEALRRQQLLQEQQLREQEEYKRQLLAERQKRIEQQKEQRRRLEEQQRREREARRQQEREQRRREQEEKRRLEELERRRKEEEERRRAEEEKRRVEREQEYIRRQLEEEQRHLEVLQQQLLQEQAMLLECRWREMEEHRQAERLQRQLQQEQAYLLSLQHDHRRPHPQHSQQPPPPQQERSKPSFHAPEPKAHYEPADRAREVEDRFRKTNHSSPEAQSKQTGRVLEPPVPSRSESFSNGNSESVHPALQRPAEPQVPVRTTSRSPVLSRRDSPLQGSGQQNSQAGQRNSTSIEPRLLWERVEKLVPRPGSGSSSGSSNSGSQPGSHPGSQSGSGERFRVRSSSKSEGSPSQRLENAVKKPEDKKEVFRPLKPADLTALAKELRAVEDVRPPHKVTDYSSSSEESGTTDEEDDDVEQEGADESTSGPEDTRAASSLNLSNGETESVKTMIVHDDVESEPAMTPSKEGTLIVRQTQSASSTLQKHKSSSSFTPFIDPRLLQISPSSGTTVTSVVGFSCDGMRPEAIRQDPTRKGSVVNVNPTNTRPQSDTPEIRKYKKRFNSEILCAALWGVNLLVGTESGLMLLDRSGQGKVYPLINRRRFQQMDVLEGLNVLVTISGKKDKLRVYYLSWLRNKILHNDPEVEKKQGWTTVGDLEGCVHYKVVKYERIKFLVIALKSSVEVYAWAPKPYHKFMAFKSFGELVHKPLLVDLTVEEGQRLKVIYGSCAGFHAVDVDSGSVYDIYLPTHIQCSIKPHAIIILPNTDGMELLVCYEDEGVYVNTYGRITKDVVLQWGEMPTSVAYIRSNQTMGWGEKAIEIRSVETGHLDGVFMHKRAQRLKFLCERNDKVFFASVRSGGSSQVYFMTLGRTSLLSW
Sequence of Uncharacterized serine/threonine-protein kinase SBK3 (Homo sapiens) (P0C264 whole entry): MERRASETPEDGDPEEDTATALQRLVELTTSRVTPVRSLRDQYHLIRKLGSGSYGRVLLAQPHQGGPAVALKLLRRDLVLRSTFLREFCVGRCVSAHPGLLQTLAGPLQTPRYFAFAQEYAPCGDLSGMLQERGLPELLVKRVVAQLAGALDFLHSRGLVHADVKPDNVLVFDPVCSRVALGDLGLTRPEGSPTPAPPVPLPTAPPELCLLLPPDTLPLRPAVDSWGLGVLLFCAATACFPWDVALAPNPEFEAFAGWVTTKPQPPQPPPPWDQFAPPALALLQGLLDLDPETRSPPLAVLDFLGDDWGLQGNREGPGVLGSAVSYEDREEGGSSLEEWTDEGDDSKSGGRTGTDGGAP
Sequence of Tyrosine-protein kinase Lck (Homo sapiens) (P06239 2-509 limits assumed): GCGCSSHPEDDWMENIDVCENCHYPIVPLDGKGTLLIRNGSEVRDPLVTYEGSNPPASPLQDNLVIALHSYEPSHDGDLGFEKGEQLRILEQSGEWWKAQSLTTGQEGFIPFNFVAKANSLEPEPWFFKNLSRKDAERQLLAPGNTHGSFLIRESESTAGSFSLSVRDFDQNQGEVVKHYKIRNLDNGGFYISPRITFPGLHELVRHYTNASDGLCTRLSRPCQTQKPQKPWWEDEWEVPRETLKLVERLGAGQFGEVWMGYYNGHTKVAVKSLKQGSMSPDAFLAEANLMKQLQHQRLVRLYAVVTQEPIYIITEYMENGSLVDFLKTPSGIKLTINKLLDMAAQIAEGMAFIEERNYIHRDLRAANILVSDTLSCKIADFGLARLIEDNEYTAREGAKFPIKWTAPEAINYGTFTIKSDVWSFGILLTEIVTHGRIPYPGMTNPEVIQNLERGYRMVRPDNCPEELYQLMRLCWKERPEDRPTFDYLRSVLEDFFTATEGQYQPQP
Sequence of Mu-type opioid receptor (Homo sapiens) (P35372 whole entry): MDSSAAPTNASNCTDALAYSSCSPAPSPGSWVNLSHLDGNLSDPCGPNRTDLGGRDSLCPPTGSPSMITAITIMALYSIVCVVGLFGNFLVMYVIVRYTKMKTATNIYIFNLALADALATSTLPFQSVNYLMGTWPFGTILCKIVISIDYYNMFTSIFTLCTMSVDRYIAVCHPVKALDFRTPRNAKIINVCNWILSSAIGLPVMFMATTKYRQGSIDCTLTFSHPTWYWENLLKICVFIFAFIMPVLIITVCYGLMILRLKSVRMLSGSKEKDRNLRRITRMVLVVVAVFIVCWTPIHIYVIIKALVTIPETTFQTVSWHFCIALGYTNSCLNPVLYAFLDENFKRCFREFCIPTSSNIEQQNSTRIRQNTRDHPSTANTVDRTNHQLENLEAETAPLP
Sequence of 5-hydroxytryptamine receptor 1B (Homo sapiens) (P28222 whole entry): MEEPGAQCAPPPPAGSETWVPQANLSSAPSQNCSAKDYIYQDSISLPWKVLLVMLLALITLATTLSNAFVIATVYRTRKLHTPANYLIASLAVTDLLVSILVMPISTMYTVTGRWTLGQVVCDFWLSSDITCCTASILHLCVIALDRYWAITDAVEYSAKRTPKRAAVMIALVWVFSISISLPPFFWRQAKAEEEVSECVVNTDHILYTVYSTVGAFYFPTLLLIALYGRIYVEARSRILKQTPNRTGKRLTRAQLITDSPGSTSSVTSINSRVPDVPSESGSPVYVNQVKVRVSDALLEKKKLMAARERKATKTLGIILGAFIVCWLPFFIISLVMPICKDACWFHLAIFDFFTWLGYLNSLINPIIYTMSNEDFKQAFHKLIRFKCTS

Cc1nc(C2CCN(C(=O)c3ccc(OC(F)(F)F)cc3N)CC2)c2ncc(N3CCN(C)CC3)cc2n1 [BAY-693]
inactive: residual activity [1] 100% | inhibition [2] 14.6% | residual activity [3] 77% | residual activity [4] 99% | residual activity [5] 100% | residual activity [6] 75% | residual activity [7] 97% | inhibition [8] -1.38% | residual activity [9] 100% | inhibition [10] -1.66% | residual activity [11] 100% | residual activity [12] 63% | residual activity [13] 100% | residual activity [14] 88% | residual activity [15] 100% | residual activity [16] 100%

CN1CCN(c2cnc3c(C4CCN(C(=O)c5ccc(OC(F)(F)F)cc5N)CC4)ncnc3c2)CC1 [BAY-885]
inactive: residual activity [1] 100% | inhibition [2] 14.9% | residual activity [3] 72% | residual activity [4] 100% | residual activity [5] 100% | residual activity [6] 100% | residual activity [7] 100% | inhibition [8] -4.69% | residual activity [9] 92% | inhibition [10] 13.2% | residual activity [11] 99% | residual activity [12] 64% | residual activity [13] 100% | residual activity [14] 95% | residual activity [15] 100% | residual activity [16] 100%
